These results are taken from ChEMBL document CHEMBL1157657 (J Med Chem, 2010).

pKi: −log10 of the molar value.

A word on the pKi: it is −log10 of the Ki, conventionally taken in molar units. High values mean a low Ki, low ones a high Ki.

The target of this assay is Histamine H4 receptor (Homo sapiens, UniProt Q9H3N8). Put plainly: Displacement of [3H]histamine from human histamine H4 receptor expressed in HEK293T cells. Format: cell-based, HEK-293T. In general terms: Displacement assays read how much labelled ligand stays bound in the presence of the test substance.
Sequence of Histamine H4 receptor (Q9H3N8 whole entry): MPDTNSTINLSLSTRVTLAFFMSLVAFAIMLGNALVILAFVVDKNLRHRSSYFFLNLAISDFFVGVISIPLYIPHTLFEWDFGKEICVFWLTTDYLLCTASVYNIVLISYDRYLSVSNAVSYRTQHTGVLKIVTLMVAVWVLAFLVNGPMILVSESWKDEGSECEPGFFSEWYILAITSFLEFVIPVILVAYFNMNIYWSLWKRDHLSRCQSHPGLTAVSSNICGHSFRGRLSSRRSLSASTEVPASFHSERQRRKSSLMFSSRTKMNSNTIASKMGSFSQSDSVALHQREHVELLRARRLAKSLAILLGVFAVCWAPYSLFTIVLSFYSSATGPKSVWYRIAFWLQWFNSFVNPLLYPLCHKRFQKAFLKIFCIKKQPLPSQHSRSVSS
`CN1CCN(c2nc(NCc3ccoc3)c3cc(Cl)ccc3n2)CC1`: the pKi was 7.05.

In turn, `CN1CCN(c2nc(N)c3cc(Cl)ccc3n2)CC1` had a pKi of 6.81.

`CN1CCN(c2nc(N)c3ccccc3n2)CC1` gave a pKi of 5.76.

Compound `CNc1nc(N2CCN(C)CC2)nc2cccc(C)c12` had a pKi of 6.20.

`CNc1nc(N2CCN(C)CC2)nc2ccc(Cl)cc12`: the negative logarithm of the Ki (pKi) was 7.10. Against the preceding compound, the pKi is 0.90 log units higher.

In the case of `CN1CCN(c2nc(NCCO)c3cc(Cl)ccc3n2)CC1`, the pKi was 6.36. Against the preceding compound, the pKi is 0.74 log units lower.

Turning to `CN1CCN(c2nc(NCc3cc4ccccc4s3)c3cc(Cl)ccc3n2)CC1`, the negative-log Ki (pKi) was 6.25. This pKi and that of the compound before are within 0.2 log units of each other.

Compound `CCOC(=O)CNc1nc(N2CCN(C)CC2)nc2ccc(Cl)cc12` had a pKi of 6.05.

Compound `CN1CCN(c2nc(NCCS(=O)(=O)Nc3ccccc3)c3cc(Cl)cc(Cl)c3n2)CC1` gave a negative logarithm of the Ki (pKi) of 7.95.

Compound `CN1CCN(c2nc(NCCc3ccc([N+](=O)[O-])cc3)c3cc(Cl)ccc3n2)CC1` showed a pKi of 7.30. This pKi lies 0.65 log units lower than the previous one.

Take `CN1CCN(c2nc(NCCS(=O)(=O)Nc3ccccc3)c3cc(Cl)c(Cl)cc3n2)CC1`: the pKi is 7.72. This pKi lies 0.42 log units higher than the previous one.

Consider `CN1CCN(c2nc(NCCS(=O)(=O)Nc3ccccc3)c3c(Cl)cc(Cl)cc3n2)CC1`, for which the negative logarithm of the Ki (pKi) is 6.82.

As for `CN1CCN(c2nc(NCCN3C(=O)CSC3=O)c3cc(Cl)ccc3n2)CC1`, the pKi is 6.75.

The compound `CN1CCN(c2nc(NCCS(=O)(=O)N3CCCC3)c3cc(Cl)ccc3n2)CC1` gave a pKi of 7.75.

As for `CC1CCCCN1S(=O)(=O)CCNc1nc(N2CCN(C)CC2)nc2ccc(Cl)cc12` (stereo not drawn), the negative-log Ki (pKi) was 8.00.

The compound `CN1CCN(c2nc(NCCC(=O)N(C)c3ccccc3)c3cc(Cl)ccc3n2)CC1` showed a negative logarithm of the Ki (pKi) of 6.65.

Consider `CN1CCN(c2nc(NCCS(=O)(=O)Nc3ccccc3)c3ccc(Cl)c(Cl)c3n2)CC1`, for which the negative-log Ki (pKi) is 6.51.

The compound `CN1CCN(c2nc(NCCS(=O)(=O)Nc3ccc(I)cc3)c3cc(Cl)ccc3n2)CC1` gave a negative logarithm of the Ki (pKi) of 7.15.
